Experimental data: patent publication US12643887B2, “Heterocyclic derivatives with cardiomyocyte proliferation activity for treatment of heart diseases” (Tongji University, priority 2019, dated 2026)

Tests used:
[1] = test system: Neonatal Rat Ventricular Myocytes (NRVMs); assay: Myocyte proliferation assay (EdU assay) in neonatal rat ventricular myocytes; format: cell-based; details: growth relative to blank myocyte growth without compound added; for Avg 1 uM (average myocyte proliferation): compound 1 uM; for Avg 3 uM (average myocyte proliferation): compound 3 uM; for Avg 10 uM (average myocyte proliferation): compound 10 uM
Outline: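 After 36 h compound exposure (1, 3 or 10 uM in 6% FBS/ITS DMEM, following 24 h low-serum culture), NRVMs were pulsed with EdU for 12 h. Proliferation scored by automated confocal imaging of EdU click chemistry, ab8295 immunostaining and DAPI nuclei in fixed cultures.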

human CK2a2 (CSNK2a2) = target: T1, human CK2a2 (CSNK2a2) (Homo sapiens, UniProt P19784); assay: CK2a2 (CSNK2a2) enzyme assay (ADP-Glo); format: biochemical; details: ADP-Glo, ATP 15 μM; read-out: CK2 alpha 2 IC50
T1 construct: Recombinant human CK2a2 (CSNK2a2) (full length); GST (N); purchased SignalChem C71-10G; host or cells: Sf9 insect cells
T1 sequence (P19784 whole entry): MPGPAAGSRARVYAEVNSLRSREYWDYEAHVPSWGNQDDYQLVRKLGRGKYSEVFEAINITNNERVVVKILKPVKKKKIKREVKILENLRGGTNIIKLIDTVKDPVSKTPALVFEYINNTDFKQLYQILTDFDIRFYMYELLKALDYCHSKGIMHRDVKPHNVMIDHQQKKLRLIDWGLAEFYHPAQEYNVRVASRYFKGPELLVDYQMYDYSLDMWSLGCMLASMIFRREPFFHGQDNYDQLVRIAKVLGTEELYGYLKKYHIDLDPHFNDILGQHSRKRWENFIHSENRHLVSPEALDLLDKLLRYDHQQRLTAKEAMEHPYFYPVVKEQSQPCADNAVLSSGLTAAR
Method: 8. CK2a2 (CSNK2a2) Enzyme Assay
The ability of compounds to inhibit human CK2a2 (CSNK2a2) kinase activities was determined using a commercially available ADP-Glo™ Kinase Assay kit (Promega, Cat #V9102) according to the manufacturer's protocol.
Recombinant human CK2a2 (CSNK2a2) (full length) (expressed in Sf9 insect cells with an N-terminal GST tag) was purchased from SignalChem (Cat #C71-10G). CK2 substrate (sequence: […]) was purchased from SignalChem (Cat #C08-58). This assay, run in a 384-well plate format, is a generic method for measuring kinase activities using an ADP-Glo Kinase Assay Kit. The basic assay procedure involves two steps: (1) Enzymatic step: inhibitors are incubated with the kinase and then ATP (included in the ADP-Glo Kinase Assay Kit) and the MBP protein are added to start the enzymatic reaction; (2) Detection step: after the kinase reaction, first ADP-Glo™ Reagent is added to terminate the kinase reaction and deplete the remaining ATP. Second, the Kinase Detection Reagent is added to simultaneously convert ADP to ATP and allow the newly synthesized ATP to be measured using a luciferase/luciferin reaction. The light generated is measured using a luminometer.
Briefly, CK2a2 (CSNK2a2) (7 nM) in the enzymatic buffer solutions (40 mM Tris, pH 7.5, 20 mM MgCl2, 0.1 mg/ml BSA, 50 μM DTT) were mixed with various concentrations of inhibitors (dissolved in 100% DMSO). These solutions were incubated for 30 minutes at 25° C., and subsequently a mixture of substrate peptide and ATP was added with the final peptide and ATP concentrations at 0.04 mg/ml and 15 μM, respectively. The final reaction mixture of enzyme-substrate-ATP-compound was incubated for 90 minutes at 25° C.
Afterwards ADP-Glo™ Reagent was added and the mixture was incubated at 25° C. for 60 minutes. Then Kinase Detection Reagent was added, and the final mixture was incubated at 25° C. for 60 minutes. The luminescence signal of the final solution was measured on an Envision instrument (PerkinElmer). The percent (%) inhibition at each concentration of a compound is calculated relative to the luminescence signal in the Max and Min control wells contained within each assay plate. […] The concentrations and percent inhibition values for a test compound are plotted and the concentration of the compound required to achieve 50% inhibition (IC50) is determined with a four-parameter logistic dose response equation.

SMILES | Avg 1 uM (average myocyte proliferation) [1] | Avg 3 uM (average myocyte proliferation) [1] | Avg 10 uM (average myocyte proliferation) [1] | IC50 (human CK2a2 (CSNK2a2))
CN(C1=N/C(=C\c2ccc3c(c2)OCO3)C(=O)N1)c1ccccc1 [Example 1, (Z)-5-(benzo[d][1,3]dioxol-5-ylmethylene)-2-(methyl(phenyl)amino)-3,5-dihydro-4H-imidazol-4-one] | * (<10% growth relative to blank myocyte growth without compound added.) | *** (>50%) | ** (10%-50%) | 0.1 to 1 µM
O=C1NC(Nc2ccccc2)=N/C1=C\c1ccc2ncsc2c1 [Example 6, (Z)-5-(benzo[d]thiazol-6-ylmethylene)-2-(phenylamino)-3,5-dihydro-4H-imidazol-4-one] | *** (>50%) | ** (10%-50%) | * (<10% growth relative to blank myocyte growth without compound added.) | < 0.1 µM
CN(C1=N/C(=C\c2ccc3ncsc3c2)C(=O)N1)c1ccccc1 [Example 7, (Z)-5-(benzo[d]thiazol-6-ylmethylene)-2-(methyl(phenyl)amino)-3,5-dihydro-4H-imidazol-4-one] | * (<10% growth relative to blank myocyte growth without compound added.) | ** (10%-50%) | * (<10% growth relative to blank myocyte growth without compound added.) | 0.1 to 1 µM
CN(CC1CC1)C1=N/C(=C\c2ccc3c(c2)OCO3)C(=O)N1 [Example 11, (Z)-5-(benzo[d][1,3]dioxol-5-ylmethylene)-2-((cyclopropylmethyl)(methyl)amino)-3,5-dihydro-4H-imidazol-4-one] | ** (10%-50%) | ** (10%-50%) | *** (>50%) | 0.1 to 1 µM
O=C1NC(N(CCO)c2ccccc2)=N/C1=C\c1ccc2c(c1)OCO2 [Example 13, (Z)-5-(benzo[d][1,3]dioxol-5-ylmethylene)-2-((2-hydroxyethyl)(phenyl)amino)-3,5-dihydro-4H-imidazol-4-one] | * (<10% growth relative to blank myocyte growth without compound added.) | ** (10%-50%) |  | 0.1 to 1 µM
COc1ccccc1N(C)C1=N/C(=C\c2ccc3c(c2)OCO3)C(=O)N1 [Example 21, (Z)-5-(benzo[d][1,3]dioxol-5-ylmethylene)-2-((2-methoxyphenyl)(methyl)amino)-3,5-dihydro-4H-imidazol-4-one] | *** (>50%) | *** (>50%) | ** (10%-50%) | 1 to 10 µM
O=C1NC(Nc2ccccc2)=N/C1=C\c1ccc2sccc2c1 [Example 72, (Z)-5-(benzo[b]thiophen-5-ylmethylene)-2-(phenylamino)-3,5-dihydro-4H-imidazol-4-one] | * (<10% growth relative to blank myocyte growth without compound added.) | * (<10% growth relative to blank myocyte growth without compound added.) |  | 
O=C1NC(Nc2ccccc2)=N/C1=C\c1ccc2cc[nH]c2c1 [Example 73, (Z)-5-((1H-indol-6-yl)methylene)-2-(phenylamino)-3,5-dihydro-4H-imidazol-4-one] | * (<10% growth relative to blank myocyte growth without compound added.) | * (<10% growth relative to blank myocyte growth without compound added.) |  | 
O=C1NC(Nc2ccc3ncsc3c2)=N/C1=C\c1ccc2c(c1)OCCO2 [Example 74, (Z)-2-(benzo[d]thiazol-6-ylamino)-5-((2,3-dihydrobenzo[b][1,4]dioxin-6-yl)methylene)-3,5-dihydro-4H-imidazol-4-one] | * (<10% growth relative to blank myocyte growth without compound added.) | *** (>50%) |  | 
Cn1cnc2ccc(/C=C3\N=C(Nc4ccc5ncsc5c4)NC3=O)cc21 [Example 75, (Z)-2-(benzo[d]thiazol-6-ylamino)-5-((1-methyl-1H-benzo[d]imidazol-6-yl)methylene)-3,5-dihydro-4H-imidazol-4-one] | ** (10%-50%) | ** (10%-50%) |  | 
O=C1NC(Nc2ccc3ncsc3c2)=N/C1=C\c1ccc2nc[nH]c2c1 [Example 76, (Z)-5-((1H-benzo[d]imidazol-6-yl)methylene)-2-(benzo[d]thiazol-6-ylamino)-3,5-dihydro-4H-imidazol-4-one] | * (<10% growth relative to blank myocyte growth without compound added.) | ** (10%-50%) |  | 
Cn1ncc2cc(/C=C3\N=C(Nc4ccccc4)NC3=O)ccc21 [Example 77, (Z)-5-((1-methyl-1H-indazol-5-yl)methylene)-2-(phenylamino)-3,5-dihydro-4H-imidazol-4-one] | * (<10% growth relative to blank myocyte growth without compound added.) | * (<10% growth relative to blank myocyte growth without compound added.) |  | 
Cn1ncc2cc(/C=C3\N=C(Nc4ccc5ncsc5c4)NC3=O)ccc21 [Example 78, (Z)-2-(benzo[d]thiazol-6-ylamino)-5-((1-methyl-1H-indazol-5-yl)methylene)-3,5-dihydro-4H-imidazol-4-one] | * (<10% growth relative to blank myocyte growth without compound added.) | * (<10% growth relative to blank myocyte growth without compound added.) |  | 
Cn1ncc2ccc(/C=C3\N=C(Nc4ccccc4)NC3=O)cc21 [Example 79, 5-((1-methyl-1H-indazol-6-yl)methylene)-2-(phenylamino)-3,5-dihydro-4H-imidazol-4-one] | * (<10% growth relative to blank myocyte growth without compound added.) | * (<10% growth relative to blank myocyte growth without compound added.) |  | 
Cn1ncc2ccc(/C=C3\N=C(Nc4ccc5ncsc5c4)NC3=O)cc21 [Example 80, (Z)-2-(benzo[d]thiazol-6-ylamino)-5-((1-methyl-1H-indazol-6-yl)methylene)-3,5-dihydro-4H-imidazol-4-one] | * (<10% growth relative to blank myocyte growth without compound added.) | * (<10% growth relative to blank myocyte growth without compound added.) |  | 
O=C1NC(Nc2ccc3c(c2)OCCO3)=N/C1=C\c1ccc2ncsc2c1 [Example 81, (Z)-5-(benzo[d]thiazol-6-ylmethylene)-2-((2,3-dihydrobenzo[b][1,4]dioxin-6-yl)amino)-3,5-dihydro-4H-imidazol-4-one] | * (<10% growth relative to blank myocyte growth without compound added.) | * (<10% growth relative to blank myocyte growth without compound added.) |  | 
O=C1NC(Nc2ccc3ncsc3c2)=NC1Cc1ccc2ncsc2c1 (stereo not shown) [Example 102, 2-(benzo[d]thiazol-6-ylamino)-5-(benzo[d]thiazol-6-ylmethyl)-3,5-dihydro-4H-imidazol-4-one] | * (<10% growth relative to blank myocyte growth without compound added.) | ** (10%-50%) |  | 
O=C1NC(Nc2ccc3nc(Nc4ccccc4)sc3c2)=N/C1=C\c1ccc2ncsc2c1 [Example 104, (Z)-5-(benzo[d]thiazol-6-ylmethylene)-2-((2-(phenylamino)benzo[d]thiazol-6-yl)amino)-3,5-dihydro-4H-imidazol-4-one] | * (<10% growth relative to blank myocyte growth without compound added.) | ** (10%-50%) |  | 
O=C1NC(N(CC2CC2)c2ccc3ncsc3c2)=N/C1=C\c1ccc2ncsc2c1 [Example 105, (Z)-2-(benzo[d]thiazol-6-yl(cyclopropylmethyl)amino)-5-(benzo[d]thiazol-6-ylmethylene)-3,5-dihydro-4H-imidazol-4-one] | ** (10%-50%) | ** (10%-50%) |  | 
